Test results taken from patent publication US20250122218A1, “MODULATORS OF CYSTIC FIBROSIS TRANSMEMBRANE CONDUCTANCE REGULATOR” (Vertex Pharmaceuticals Incorporated, priority 2022, published 2025).

What follows are compounds tested against T1, CFTR in F508del/MF-HBE cells (Homo sapiens, UniProt P13569, DEL508-508) (assay: Ussing chamber assay of CFTR-mediated short-circuit currents (identification of potentiator compounds)). Details: potentiator incubated 18-24 hours at 37° C. in combination with 10 μM corrector, in the presence of 20% human serum, CFTR-mediated ISC.
T1 construct: human bronchial epithelial (HBE) cells derived from CF subjects heterozygous for F508del and a minimal function CFTR mutation; endogenous in cells; host or cells: primary human bronchial epithelial cells from CF subjects (F508del/MF-HBE)
T1 sequence (P13569 with tags, fused parts or gaps DEL508-508): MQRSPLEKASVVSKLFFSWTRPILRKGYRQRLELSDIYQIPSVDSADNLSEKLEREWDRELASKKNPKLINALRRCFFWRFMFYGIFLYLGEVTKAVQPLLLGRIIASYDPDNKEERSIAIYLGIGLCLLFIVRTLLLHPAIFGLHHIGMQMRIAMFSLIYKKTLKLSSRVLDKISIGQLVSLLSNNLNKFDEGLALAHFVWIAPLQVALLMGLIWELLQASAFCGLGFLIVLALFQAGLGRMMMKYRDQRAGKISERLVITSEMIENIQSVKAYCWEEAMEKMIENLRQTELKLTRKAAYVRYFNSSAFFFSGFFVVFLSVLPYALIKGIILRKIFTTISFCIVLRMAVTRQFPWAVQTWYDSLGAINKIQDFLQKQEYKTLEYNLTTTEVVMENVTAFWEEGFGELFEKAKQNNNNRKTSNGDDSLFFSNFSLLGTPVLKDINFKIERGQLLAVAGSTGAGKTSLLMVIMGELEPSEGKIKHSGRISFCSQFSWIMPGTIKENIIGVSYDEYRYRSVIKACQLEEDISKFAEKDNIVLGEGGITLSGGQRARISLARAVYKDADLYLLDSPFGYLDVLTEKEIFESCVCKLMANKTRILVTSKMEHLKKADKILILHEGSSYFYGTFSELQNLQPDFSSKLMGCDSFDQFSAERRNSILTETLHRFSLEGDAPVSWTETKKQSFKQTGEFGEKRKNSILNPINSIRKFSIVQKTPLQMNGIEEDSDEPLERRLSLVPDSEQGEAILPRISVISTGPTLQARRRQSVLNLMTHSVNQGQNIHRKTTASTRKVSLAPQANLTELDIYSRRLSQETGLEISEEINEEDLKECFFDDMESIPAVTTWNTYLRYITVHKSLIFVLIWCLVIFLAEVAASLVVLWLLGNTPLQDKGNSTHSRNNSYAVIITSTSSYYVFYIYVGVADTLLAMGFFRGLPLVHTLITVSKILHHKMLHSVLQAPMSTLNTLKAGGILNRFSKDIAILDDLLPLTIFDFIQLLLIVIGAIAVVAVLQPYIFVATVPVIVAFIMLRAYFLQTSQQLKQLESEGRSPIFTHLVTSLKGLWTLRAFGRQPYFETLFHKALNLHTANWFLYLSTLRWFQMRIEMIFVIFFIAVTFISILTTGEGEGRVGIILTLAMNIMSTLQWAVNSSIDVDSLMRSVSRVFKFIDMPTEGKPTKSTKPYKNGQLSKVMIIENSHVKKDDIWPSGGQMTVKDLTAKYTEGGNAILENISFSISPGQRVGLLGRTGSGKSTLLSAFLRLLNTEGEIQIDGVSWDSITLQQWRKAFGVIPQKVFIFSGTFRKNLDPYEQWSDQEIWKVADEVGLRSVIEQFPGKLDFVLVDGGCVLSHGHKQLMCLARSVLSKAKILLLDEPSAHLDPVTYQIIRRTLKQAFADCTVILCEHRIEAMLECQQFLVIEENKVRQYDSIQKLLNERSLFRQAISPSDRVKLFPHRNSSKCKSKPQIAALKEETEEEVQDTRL
Format: cell-based
Procedure, shortened: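 Short-circuit current was measured in Ussing chambers at 37° C, Vhold 0 mV, 30 μM apical amiloride. CFTR current was defined as the forskolin (20 μM) response relative to the current remaining after BPO/GlyH-101/inhibitor 172 (20 μM each). Before recording, cells had 18-24 h exposure to test potentiators with 10 μM corrector compound in 20% human serum.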

| Compound | EC50 |
| --- | --- |
| CC(C)N1CCCCC(O)(C(F)(F)F)C2=NN=C(O2)c2nc(c(C(F)(F)F)cc2N)CC1=O (stereo not drawn) [Compound 52, 17-amino-6-hydroxy-11-isopropyl-6,15-bis(trifluoromethyl)-19-oxa-3,4,11,18-tetrazatricyclo[12.3.1.12,5]nonadeca-1(18),2,4,14,16-pentaen-12-one] | > 1000 nM |
| Nc1cc(C(F)(F)F)c2nc1-c1nnc(o1)C(O)(C(F)(F)F)CCCC(=O)CCC2=O (single isomer, unassigned) [Compound 36, 17-amino-6-hydroxy-6,15-bis(trifluoromethyl)-19-oxa-3,4,18-triazatricyclo[12.3.1.12,5]nonadeca-1(18),2,4,14,16-pentaene-10,13-dione] | > 1000 nM |
| Cc1cnc(CN2CCCCC[C@](O)(C(F)(F)F)C3=NN=C(O3)c3nc(c(C(F)(F)F)cc3N)C2=O)cn1 [Compound 167, (6R)-- 17-amino-6-hydroxy-12-[(5-methylpyrazin-2-yl)methyl]-6,15-bis (trifluoromethyl)-19-oxa-3,4,12,18-tetrazatricyclo [12.3.1.12,5] nonadeca-1(18),2,4,14,1 6-pentaen-13-one] | > 1000 nM |
| COC1CCCCCCC(O)(C(F)(F)F)C2=NN=C(O2)c2nc1c(C(F)(F)F)cc2N (single isomer, unassigned) [Compound 15, 17-amino-13-methoxy-6,15-bis(trifluoromethyl)-19-oxa-3,4,18-triazatricyclo[12.3.1.12,5]nonadeca-1(18),2,4,14,16-pentaen-6-ol] | 500 to 1000 nM |
| Nc1cc(C(F)(F)F)c2nc1-c1nnc(o1)C(O)(C(F)(F)F)CCCCN(C1CC(F)(F)C1)C2=O (single isomer, unassigned) [Compound 199, 16-amino-11-(3,3-difluorocyclobutyl)-6-hydroxy-6,14-bis(trifluoromethyl)-18-oxa-3,4,11,17-tetrazatricyclo[11.3.1.12,5]octadeca-1(17),2,4,13,15-pentaen-12-one] | > 1000 nM |
| 17-amino-12-[(3- cyclobutyl-5-fluoro- phenyl)methyl]-6- hydroxy-6,15- bis(trifluoromethyl)- 8,19-dioxa-3,4,12,18- tetrazatricyclo [12.3.1.12,5] nonadeca- 1(18),2,4,14,16- pentaen-13-one [Compound 263] | < 500 nM |
| CC(C)(C)ON=C1CCCCCC[C@](O)(C(F)(F)F)C2=NN=C(O2)c2nc1c(C(F)(F)F)cc2N (single isomer, unassigned) [Compound 30] | < 500 nM |
| Cc1cc(C)cc(CN2CCCCC[C@](O)(C(F)(F)F)C3=NN=C(O3)c3nc(c(C(F)(F)F)cc3N)C2=O)c1 [Compound 225, (6R)-17-amino-12-[(3,5-dimethylphenyl)methyl]-6-hydroxy-6,15-bis(trifluoromethyl)-19-oxa-3,4,12,18-tetrazatricyclo [12.3.1.12,5] nonadeca-1(18),2,4,14,16-pentaen-13-one] | < 500 nM |
| CC1(C)CCCCC[C@](O)(C(F)(F)F)C2=NN=C(O2)c2nc(c(C(F)(F)F)cc2N)C1=O [Compound 45, (6R)-17-amino-6-hydroxy-12,12-dimethyl-6,15-bis(trifluoromethyl)-19-oxa-3,4,18-triazatricyclo[12.3.1.12,5]nonadeca-1(18),2,4,14,16-pentaen-13-one] | < 500 nM |
| Nc1cc(C(F)(F)F)c2nc1-c1nnc(o1)[C@@](O)(C(F)(F)F)CCCCCN([C@H]1CC[C@@H](C(F)(F)F)CC1)C2=O [Compound 208, (6R)-17-amino-6-hydroxy-12-[(1s,4s)-4-(trifluoromethyl)cyclohexyl]-6,15-bis(trifluoromethyl)-19-oxa-3,4,12,18-tetraazatricyclo [12.3.1.12,5] nonadeca-1(18),2,4,14,16-pentaen-13-one] | < 500 nM |
| Cc1cc(OC(F)(F)F)ccc1CN1CCCCC[C@](O)(C(F)(F)F)C2=NN=C(O2)c2nc(c(C(F)(F)F)cc2N)C1=O [Compound 157, (6R)-17-amino-6-hydroxy-12-[[2-methyl-4-(trifluoromethoxy)phenyl]methyl]-6,15-bis (trifluoromethyl)-19-oxa-3,4,12,18-tetrazatricyclo [12.3.1.12,5] nonadeca-1(18),2,4,14,1 6-pentaen-13-one] | < 500 nM |
| Nc1cc(C(F)(F)F)c2nc1-c1nnc(o1)[C@@](O)(C(F)(F)F)CCCCCN(Cc1cccc(N3CCCCC3)n1)C2=O [Compound 185, (6R)-17-amino-6-hydroxy-12-[[6-(1-piperidyl)-2-pyridyl]methyl]-6,15-bis (trifluoromethyl)-19-oxa-3,4,12,18-tetrazatricyclo [12.3.1.12,5] nonadeca-1(18),2,4,14,1 6-pentaen-13-one] | < 500 nM |
| Nc1cc(C(F)(F)F)c2nc1-c1nnc(o1)C(O)(C(F)(F)F)CCCCCN(C(=O)C1CCC1)C2 (single isomer, unassigned) [Compound 22, [17-amino-6-hydroxy-6,15-bis(trifluoromethyl)-19-oxa-3,4,12,18-tetrazatricyclo[12.3.1.12,5]nonadeca-1(18),2,4,14,16-pentaen-12-yl]-cyclobutyl-methanone] | < 500 nM |
| Nc1cc(C(F)(F)F)c2nc1-c1nnc(o1)[C@@](O)(C(F)(F)F)CCCCCN(C1CC(F)(F)C1)C2=O [Compound 84, (6R)-17-Amino-12-(3,3-difluorocyclobutyl)-6-hydroxy-6,15-bis (trifluoromethyl)-19-oxa-3,4,12,18-tetrazatricyclo [12.3.1.12,5] nonadeca-1(18),2,4,14,1 6-pentaen-13-one] | < 500 nM |

Further lines, results first:

| EC50 | Compound |
| --- | --- |
| < 500 nM | Nc1cc(C(F)(F)F)c2nc1-c1nnc(o1)C(O)(C(F)(F)F)c1cc(ccc1F)C=CCCC2=O (single isomer, unassigned) [Compound 60, 20-amino-8-fluoro-6-hydroxy-6,18-bis(trifluoromethyl)-23-oxa-3,4,21-triazatetracyclo[15.3.1.12,5.17,11]tricosa-1(21),2,4,7(22),8,10,12,17,19-nonaen-16-one] |
| < 500 nM | Nc1cc(C(F)(F)F)c2nc1-c1nnc(o1)[C@@](O)(C(F)(F)F)CCCCCN(C1CCCOC1)C2=O (mixture of isomers) [Compound 133, (6R)-17-Amino-6-hydroxy-12-tetrahydropyran-3-yl-6,15-bis (trifluoromethyl)-19-oxa-3,4,12,18-tetrazatricyclo [12.3.1.12,5] nonadeca-1(18),2,4,14,1 6-pentaen-13-one] |
| < 500 nM | CC(C)n1cc(CN2CCCCC[C@](O)(C(F)(F)F)C3=NN=C(O3)c3nc(c(C(F)(F)F)cc3N)C2=O)cn1 [Compound 128, (6R)-17-amino-6-hydroxy-12-[(1-isopropylpyrazol-4-yl)methyl]-6,1-bis (trifluoromethyl)-19-oxa-3,4,12,18-tetrazatricyclo [12.3.1.12,5] nonadeca-1(18),2,4,14,1 6-pentaen-13-one] |
| < 500 nM | Nc1cc(C(F)(F)F)c2nc1-c1nnc(o1)[C@@](O)(C(F)(F)F)CCCCCN(C1C3CC1C3)C2=O (stereo partly drawn) [Compound 92, (6R)-17-Amino-12-(2-bicyclo[1.1.1]pentanyl)-6-hydroxy-6,15-bis(trifluoromethyl)-19-oxa-3,4,12,18-tetrazatricyclo [12.3.1.12,5] nonadeca-1(18),2,4,14,1 6-pentaen-13-one] |
| < 500 nM | Nc1cc(C(F)(F)F)c2nc1-c1nnc(o1)[C@@](O)(C(F)(F)F)CCCCCN(Cc1cccc(Cl)c1)C2=O [Compound 149, (6R)-17-amino-12-[(3-chlorophenyl)methyl]-6-hydroxy-6,15-bis (trifluoromethyl)-19-oxa-3,4,12,18-tetrazatricyclo [12.3.1.12,5] nonadeca-1(18),2,4,14,1 6-pentaen-13-one] |
| < 500 nM | Nc1cc(C(F)(F)F)c2nc1-c1nnc(o1)[C@@](O)(C(F)(F)F)CCCCCN(Cc1ccc(OC(F)F)nc1)C2=O [Compound 268, (6R)-17-amino-12-[[6-(difluoromethoxy)-3-pyridyl]methyl]-6-hydroxy-6,15-bis(trifluoromethyl)-19-oxa-3,4,12,18-tetrazatricyclo [12.3.1.12,5] nonadeca-1(18),2,4,14,16-pentaen-13-one] |
| < 500 nM | Nc1cc(C(F)(F)F)c2nc1-c1nnc(o1)[C@@](O)(C(F)(F)F)CCC(F)(F)CCCC2=O [Compound 40, (6R)-17-amino-9,9-difluoro-6-hydroxy-6,15-bis(trifluoromethyl)-19-oxa-3,4,18-triazatricyclo[12.3.1.12,5]nonadeca-1(18),2,4,14,16-pentaen-13-one] |
| < 500 nM | CC1(C)CCCC[C@](O)(C(F)(F)F)C2=NN=C(O2)c2nc(c(C(F)(F)F)cc2N)C(=O)N(Cc2ccc3c(c2)OC(F)(F)O3)C1 [Compound 124, (6R)-18-amino-13-[(2,2-difluoro-1,3-benzodioxol-5-yl)methyl]-6-hydroxy-11,11-dimethyl-6,16-bis (trifluoromethyl)-20-oxa-3,4,13,19-tetrazatricyclo [13.3.1.12,5]icosa-1(19),2,4,15,1 7-pentaen-14-one] |
| < 500 nM | Nc1cc(C(F)(F)F)c2nc1-c1nnc(o1)[C@@](O)(C(F)(F)F)CCCCCN(Cc1ccc(-c3ccccc3)cc1)C2=O [Compound 173, (6R)-17-amino-6-hydroxy-12-[(4-phenylphenyl)methyl]-6,15-bis (trifluoromethyl)-19-oxa-3,4,12,18-tetrazatricyclo [12.3.1.12,5] nonadeca-1(18),2,4,14,1 6-pentaen-13-one] |
| < 500 nM | N#C[C@H]1CC[C@H](N2CCCCC[C@](O)(C(F)(F)F)C3=NN=C(O3)c3nc(c(C(F)(F)F)cc3N)C2=O)CC1 [Compound 193, trans-4-[(6R)-17-amino-6-hydroxy-13-oxo-6,15-bis(trifluoromethyl)-19-oxa-3,4,12,18-tetraazatricyclo[12.3.1.12,5]nonadeca-1(18),2,4,14,16-pentaen-12-yl]cyclohexane-1-carbonitrile] |
